Data published in patent publication US4406903A, “Xanthine derivatives useful as antidepressives” (John Wyeth and Brother Limited, priority 1981, dated 1983).
Structures can show the parent of a compound that is named as a salt.

Experiments:
[1] = test system: 5-hydroxytryptamine uptake; experiment: Inhibition of 5-Hydroxytryptamine Uptake in Brain Slices (Procedure 1); assay type: cell-based, rat; details: for inhibition at 0.1 µM / inhibition at 1 µM / inhibition at 10 µM: rat cerebral cortex slices, 3H 5-hydroxytryptamine 10^-7 M; for Inhibition of 5-hydroxytryptamine uptake, potency ratio compared with imipramine: IC50-based ratio versus imipramine, rat brain slices; for Potency in 5-hydroxytryptamine tests (in words, versus imipramine): qualitative comparison with the standard inhibitor imipramine
Experimental: (§1) Inhibition of 5-Hydroxytryptamine or Noradrenaline Uptake in Brain Slices
Two rates (weighing 170-200 g) are decapitated and the brains rapidly removed and placed in ice-cold Krebs solution. The cerebral cortex on each side of the median line is opened out flat and cut to give two slabs of even thickness. The slabs are weighed and then sliced on a McIlwain tissue chopper. The tissue is sliced twice, the second cutting being at an angle of 45° to the first. The interval of cutting is 0.1 mm. The slices are transferred to a 5 ml conical flask and Krebs solution is added in the proportion 5 ml/g tissue. The slices are dispersed in the solution by sucking up and down in a Pasteur pipette. When a satisfactory suspension is achieved it is pipetted in 50 μl portions into 25 ml conical flasks containing 4.5 ml chilled Krebs solution. An Eppendorf pipette with the tip cut back to about 1 mm diameter is used. The suspension is kept well mixed at this stage so that each portion taken contains the same amount of tissue (~10 mg). The flasks are gassed with 95% O2 /5% CO2 and sealed with aluminium foil. They are then placed in a water bath at 27° for 15 minutes pre-incubation.
Flasks in groups of four are then each treated by an addition in 0.5 ml. to achieve the following concentrations in the medium. […]
______________________________________
GROUP CONCENTRATION (CONCENTRATION)
A 10^-7 M TEST COMPOUND (10^-5 M)
B 10^-7 M IMIPRAMINE (10^-5 M)
C 10^-7 M IMIPRAMINE (10^-6 M)
D 10^-7 M IMIPRAMINE (10^-7 M)
After 20 minutes incubation the slices are filtered off in filter funnels connected to a vacuum line. Each flask in rinsed with 5 ml Krebs which is also poured through the filter funnel followed by a further 5 ml Krebs. For group F the treatment differs in that ^3 H 5-hydroxytryptamine in 0.5 ml is added immediately before filtration. This gives an estimation of the amount of activity retained by the filter from the solution together with the amount of non-specific binding by the tissue.
(§2) The filter papers are placed in scintillation vials and soaked in 4 ml ethanol/methanol (3:1 v/v) for at least 45 minutes before addition of 10 ml liquid scintillator after which the samples are counted in a liquid scintillation counter.
(§3) Uptake inhibition is expressed as follows: [formula] […] In this case a dose response experiment is carried out with the test compound and impramine at concentrations of 10^-5 M, 10^-6 M and 10^-7 M. The % inhibition is again calculated in the same way and the results are plotted as % inhibition against log compound concentration. The molar concentration which inhibits uptake by 50% (IC50) is determined. The potency ratio compared to imipramine is calculated as: [formula]

[2] = test system: noradrenaline uptake; experiment: Inhibition of Noradrenaline Uptake in Brain Slices (Procedure 1); assay type: cell-based, rat; details: 3H-noradrenaline 10^-7 M; active if % inhibition at 10^-6 M is at least that of imipramine at 10^-7 M
Experimental: as §1
Two rates (weighing 170-200 g) are decapitated and the brains rapidly removed and placed in ice-cold Krebs solution. The cerebral cortex on each side of the median line is opened out flat and cut to give two slabs of even thickness. The slabs are weighed and then sliced on a McIlwain tissue chopper. The tissue is sliced twice, the second cutting being at an angle of 45° to the first. The interval of cutting is 0.1 mm. The slices are transferred to a 5 ml conical flask and Krebs solution is added in the proportion 5 ml/g tissue. The slices are dispersed in the solution by sucking up and down in a Pasteur pipette. […]
as §2
as §3, with “compound concentration. […] The potency” for “compound concentration. The molar concentration which inhibits uptake by 50% (IC50) is determined. The potency”, “as: [formula] […]” for “as: [formula]”

[3] = test system: L-noradrenaline reuptake; experiment: Inhibition of L-noradrenaline reuptake in rat cortical synaptosomes (Procedure 2); assay type: biochemical; details: 10^-7 M 3H-L-noradrenaline, 37° C., 4 min, pH 7.4, read-out: NA Uptake IC50
From the text: (§4) Inhibition of 5-hydroxytryptamine and L-noradrenaline reuptake in rat cortical synaptosomes
Ref: E. G. Gray and V. P. Whittaker (1962). J. Anat 96, p 79-88.
(§5) "The isolation of nerve endings from brain: An electron microscopic study of cell fragments dervied by homogenisation and centrifugation."
(§6) Test object: Purified rat cortical synaptosomes (P2 B) from 8-10 male albino rats (190-250 g).
Procedure: Rats are stunned and then killed by decapitation. The brain is quickly removed and the cortex excised essentially free of striatum and mid-brain. The tissue is then gently homogenised (10 strokes at 840 rpm) in 0.32 M sucrose. […]
Test compounds may be present in 4 to 6 concentrations depending on previous experience, but normally the range would be 10^-9 M to 10^-6 M for an active compound. The quantity of material prepared per experiment would normally be sufficient to examine the effects of 30 different treatments (e.g. 6 compounds each at 5 concentrations in triplicate). […] The radioactivity retained on the filter is determined by the addition of Instagel (10 ml) (Packard) and subsequent liquid scintillation counting to convert results into dpm. […] Percentage inhibition of uptake is calculated as [formula] where background dpm is that accumulated in a sodium-free medium. […]

[4] = test system: 5-hydroxytryptamine reuptake; experiment: Inhibition of 5-hydroxytryptamine reuptake in rat cortical synaptosomes (Procedure 2); assay type: biochemical; details: for Selectivity Ratio (5-HT uptake over NA uptake): from IC50 values of NA and 5-HT uptake; for IC50: 10^-7 M 14C-5-hydroxytryptamine, 37° C., 4 min, pH 7.4, read-out: 5-HT Uptake IC50
From the text: as §4, §5, §6
Procedure: Rats are stunned and then killed by decapitation. The brain is quickly removed and the cortex excised essentially free of striatum and mid-brain. […] The homogenate of concentration 10% w/v in 0.32 sucrose is centrifuged at an average centrifugal force of 1000×g for 10 minutes and the supernatant is decanted and centrifuged at an average of 10000×g for 20 min to obtain the crude mitochondrial pellet (P2). […] The synaptosomes are then centrifuged in a swing-out rotor at 97 000×g average for 30 min. […] (2 ml/g original tissue). Throughout the procedure, it is essential to maintain the tissue and synaptosomes at […]. Synaptosomes should be used within three hours of preparation. A 100 μl aliquot of this synaptosomal suspension (2.5-3.0 mg protein/ml) is added to the incubation medium (900 μl) which has been preincubated at 37° C. for 5 min. […] All reagents are of `Analar` grade and glass distilled water is used.
The quantity of material prepared per experiment would normally be sufficient to examine the effects of 30 different treatments (e.g. 6 compounds each at 5 concentrations in triplicate). […] The filters are then washed with 2.4 ml incubation medium. The radioactivity retained on the filter is determined by the addition of Instagel (10 ml) (Packard) and subsequent liquid scintillation counting to convert results into dpm. The non-specific binding and passive accumulation of both amines is corrected for by determining uptake in a sodium-free medium. Percentage inhibition of uptake is calculated as [formula] where background dpm is that accumulated in a sodium-free medium.
Assays are run in triplicate, with 2 or 3 control and background determinations inserted randomly. The selectivity ratio is calculated as: [formula]

Structure (SMILES)	inhibition at 0.1 µM [1] [%]	inhibition at 1 µM [1] [%]	inhibition at 10 µM [1] [%]	Inhibition of 5-hydroxytryptamine uptake, potency ratio compared with imipramine [1]	Potency in 5-hydroxytryptamine tests (in words, versus imipramine) [1]	Inhibition of noradrenaline uptake [2]	IC50 [3] [nM]	Selectivity Ratio (5-HT uptake over NA uptake) ([4]; rat cortical synaptosomes)	Selectivity of action (in words) ([4]; qualitative, 5-HT versus NA uptake)	Inhibition of 5-HT uptake (in words) ([4]; qualitative, rat cortical synaptosomes)	IC50 ([4]; rat cortical synaptosomes) [nM]
Cn1c(=O)c2c(ncn2CCCNCCc2c[nH]c3ccccc23)n(C)c1=O [Example 3, N-[3-theophyllin-7-yl)propyl]tryptamine hydrochloride]	4	43	77	0.8	about the same order of potency as the standard inhibitor imipramine	INACTIVE	–	–	–	–	–
Cn1c(=O)c2c(ncn2CCCNCCc2c[nH]c3ccc(O)cc23)n(C)c1=O [Example 1, 5-hydroxy-N-[3-(theophyllin-7-yl)propyl]tryptamine hydrochloride hemihydrate]	44	77	84	4.3	considerably more potent than imipramine	INACTIVE	> 10000	> 167	very selective in its action	very potent inhibitor of 5-HT uptake	60
CN(C)CCCN1c2ccccc2CCc2ccccc21 [imipramine, reference compound]	–	–	–	–	–	–	50	0.5	–	–	100
